Experimental data as given in US10457639B2, “Fluorescent regulators of RASSF1A expression and human cancer cell proliferation” (GEORGETOWN UNIVERSITY, priority 2008, dated 2019).

What was measured:
cyclin D1 = assay: RT-PCR of cyclin D1 mRNA in treated PC-3 cells; type: cell-based, human; details: 5 μM, 24 hours
Experimental: (§1) Representative photograph of an experiment repeated thrice. PC-3 cells were treated 24 hours with either 15 μM for compounds 6, 7, 7a, 8, 9, 10 or 5 μM for compound KED-4-69 (compound 6a) before RNA extraction and RT-PCR amplification.
(§2) Reverse Transcriptase-polymerase Chain Reaction (RT-PCR). From PC-3 cells incubated 24 hours with either 15 μM of compound 6, 7, 7a, 8, 9, 10 or 5 μM of KED-4-69 (compound 6a), RNA was extracted with TRIzol solution (Invitrogen, Carlsbad, Calif.) and genes of interest were amplified using 500 ng of total RNA reverse-transcribed to cDNA using a Superscript II kit (Invitrogen) with random hexamers. Human-specific primers were designed using the Primer Quest program and purchased from Integrated DNA Technologies, Inc. (Coralville, Iowa). Their sequences and product band sizes are: cyclin D1 forward primer 5′-[…]-3′ (SEQ ID NO:1), cyclin D1 reverse primer 5′-[…]-3′ (SEQ ID NO:2) (475 bp) and GAPDH forward primer: 5′-CCA […]-3′ (SEQ ID NO:3), GAPDH reverse primer: 5′-TCTAGACGGCAG GTCAGGTCCACC-3′ (SEQ ID NO:4) (598 bp). PCRs were initiated at 94° C. for 2 min, followed by 28 cycles of 94° C. for 1 min, 1 min annealing temperature, 72° C. for 1 min, and final extension at 72° C. for 5 min. The annealing temperature for cyclin D1 and GAPDH was 60° C. Primers and PCR conditions for RASSF1A are used as described by Rong et al. (Oncogene. 2004, 23, 8216-8230). After amplification, PCR products were separated on 1.5% agarose gels and visualized by ethidium bromide fluorescence using the Fuji LAS-1000 Imager. Images were captured and imported to Adobe Photoshop. Band intensities were quantified by using ImageJ software (NIH, Bethesda, Md.).
(§3) It has been reported that mRNA levels of RASSF1A correlate to its protein expression levels (Rong et al. Oncogene, 2004, 23: 8216-8230). To investigate the effects of the synthetic compounds on RASSF1A and cyclin D1 expression, levels of the respective mRNAs in treated cells compared to control were analyzed (FIG. 3). […] Because overexpression of cyclin D1 is associated with tumorigenicity and proliferation in a variety of tumors, including prostate cancers, this downregulation provides a cancer treatment method (Chen, Y. et al. Oncogene. 1998, 16, 1913-1920; Musgrove, E. A. et al. Proc. Natl. Acad. Sci. USA. 1994, 91, 8022-8026).

RASSF1A = assay: RT-PCR of RASSF1A mRNA in treated PC-3 cells; type: cell-based, human; details: 5 μM, 24 hours
Experimental: as §1, §2, §3

[1] = system: DNA methyltransferase (DNMT); assay: DNA methyltransferase activity assay (EpiQuik kit, nuclear extracts of treated PC-3 cells); type: cell-based, human; details: 72 hours, 5 μM (FIG. 7 legend; method says 2 μM)
Experimental: Black bars: PC-3 cells were treated 72 hours with either mahanine or compound 6a at 5 μM or compound 6, 7, 7a, 8, or 9 at 15 μM and then assayed for DNMT activity using the DNMT activity kit from Epigentek. Data are mean of three independent experiments ±SEM. Grey bars: Densitometry from RT-PCR blot where the amount of RASSF1A mRNA re-expressed by mahanine treatment is normalized to 100%.
DNA methyltransferase activity assay. PC-3 cells were plated in complete growth media, treated with either mahanine or compound 6a at 2 μM or compound 6, 7, 7a, 8, 9, 10 at 15 μM for 3 days and then harvested. Nuclear extracts were prepared according to manufacturer's protocol (Nuclear extraction kit, Epigentek). DNMT activity was measured using an EpiQuik DNA methyltransferase activity assay kit (Epigentek). Results were expressed as percent DNMT activity compared to the DMSO control as 100%.
The levels of DNMT activity in treated versus untreated prostate cancer cells were measured using a DNMT assay kit from Epigentek. […] These reduced DNMT activities correlate with the pattern of RASSF1A induction described above (FIG. 7, grey bars). The data imply that inhibition of DNMT prevents hypermethylation of the RASSF1A promoter region and consequently restores RASSF1A.

DNMT3b = molecular target: T1, DNMT3b (Homo sapiens, UniProt Q9UBC3); assay: Multiphoton laser imaging, DNMT3b antibody staining; type: cell-based; details: PC-3 cells, 5 μM
T1 construct: endogenous in cells; host or cells: PC-3 human prostate cancer cells
Experimental: (A) Fluorescent spectrum of compound 6a; (B) PC-3 cells were treated with a 5 μM solution of compound 6a for 1 hr before being fixed and stained with propidium iodide and DNMT3b antibody; (C) Cells were treated with a 5 μM solution of compound 6a for 6 hr before fixation; (D) Cells were treated with a 5 μM solution of DMSO for 6 hr before fixation. The frames in each set of images are from left to right, top to bottom: propidium iodide; clear field; DNA methyltransferase 3b (DNMT3b); compound 6a or vehicle; and merged. Compound 6a was excited at 725 nm with a multiphoton laser and imaged with a 500-550 nm filter. Arrows indicate representative cells in which DNMT3b is solely in the cytoplasm.
Multiphoton laser imaging. After incubating slides with a fibronectin/cortactin solution for 30 minutes, PC-3 cells were plated onto the slides and incubated overnight. The cells were then treated with a 5 μM solution of compound 6a or DMSO control and incubated for 1-6 hour before washing with PBS. The slides were fixed with a 4% formaldehyde solution, washed with PBS then treated with propidium iodide (nuclear localization) and DNMT3a or DNMT3b. The compound was excited at 725 nm with a multiphoton laser and imaged with a 500-550 nm filter.
The dansyl moiety present in compound 6a allows it to visibly fluoresce at 552 nm when excited at 370 nm (FIG. 4A). […]

COc1ccc2c(c1)[nH]c1c(C)c(OS(=O)(=O)c3cccc4c(N(C)C)cccc34)ccc12 [Compound 6a, 7-Methoxy-1-methyl-9H-carbazol-2-yl 5-(dimethylamino)naphthalene-1-sulfonate]
cyclin D1 mRNA level versus control (cyclin D1): corresponding decrease in cyclin D1 | RASSF1A mRNA level versus control (RASSF1A): significant increase in RASSF1A | DNMT activity versus DMSO control [1]: most potent inhibition | DNMT3b localization (DNMT3b; one hour): a population of treated cells that have DNMT3b only in the cytoplasm | DNMT3b localization (DNMT3b; six hours): majority of treated cells having DNMT3b only in the cytoplasm
